From article PMC7402526, “An in vitro quantitative systems pharmacology approach for deconvolving mechanisms of drug-induced, multilineage cytopenias” (PLoS Computational Biology, 2020)

How the values were obtained:
[1] = system: multi-potent progenitors (MPPs); experiment: MLTA, MPPs: concentration-response and QSP model fit; type: cell-based, human
In short: (§1)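 Parameters come from fitting an Emax-based QSP model, with L1 regularization and Emax ranging 0–2, to vehicle-normalized, bead-corrected flow cytometry counts. Counts came from human bone marrow CD34+ cells treated from day 0 through a 6-day multi-lineage cytokine culture in SFEM II, using 2–7 donors per drug.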

[2] = system: granulocyte-macrophage progenitor (GMPs); experiment: MLTA, GMPs: concentration-response and QSP model fit; type: cell-based, human; conditions: Homo sapiens, 144 h, 6 days, normalized to vehicle control, read-out: GMPs normalized cell count
In short: as §1

granulocytes (Gran-lin) = experiment: MLTA, Gran: concentration-response and QSP model fit; type: cell-based, human
In short: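 Freeze-thawed primary human bone marrow CD34+ cells were cultured 6 days in SFEM II with a cytokine cocktail, drug added on day 0. Subsets were counted by 17-parameter flow cytometry with TruCount beads and normalized to vehicle wells. An Emax QSP model (Emax 0–2, L1 regularization) was fitted to these counts.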

[3] = system: late erythroid cells (Eryth II); experiment: MLTA, ErythII: concentration-response and QSP model fit; type: cell-based, human; conditions: Homo sapiens, 144 h
In short: as §1

MK cells (MK-lin) = experiment: MLTA, MK: concentration-response and QSP model fit; type: cell-based, human; conditions: Homo sapiens, 144 h
In short: as §1

[4] = system: lymphocyte progenitors (LymP); experiment: MLTA, LymP: concentration-response and QSP model fit; type: cell-based, human; conditions: Homo sapiens, Lymphocyte, 144 h
In short: as §1

[5] = system: total viable cells (totalViableCells); experiment: MLTA, total live cells concentration-response; type: cell-based; conditions: Homo sapiens, 144 h, 6 days, normalized to vehicle control, read-out: total_live normalized cell count
In short: (§2)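 Freeze-thawed primary human bone marrow CD34+ cells in SFEM II with cytokine cocktail, drug added day 0, 6 days at 37°C, 5% CO2. Live/dead counts by 17-parameter flow cytometry with DAPI exclusion, bead-normalized, volume-corrected to cells/mL. Normalized per donor to mean of six vehicle wells; 2–7 donors pooled.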

[6] = system: total dead cells (totalDeadCells); experiment: MLTA, total dead cells concentration-response; type: cell-based; conditions: Homo sapiens, 144 h, 6 days, normalized to vehicle control, read-out: total_dead normalized cell count
In short: as §2

[7] = system: human bone marrow-derived CD34+ cells differentiated into multiple hematopoietic lineages; experiment: MLTA, overall effects across hematopoietic lineages; type: cell-based; conditions: QSP model fit; EmaxT > 1.0 = cell-killing
Procedure: A custom optimized cytokine cocktail was developed using commercially available cytokines (Peprotech, New Jersey) to facilitate simultaneous multi-lineage differentiation and self-renewal of freeze-thawed primary human bone marrow-derived CD34+ cells in SFEM II media (cells and media from StemCell Technologies, Vancouver). Cultures were carried out in ultra-low attachment 96-well plates (Corning, New York) with test article added on day 0 and cultured at 37°C, 85% relative humidity, and 5% CO2 for six days before interrogating drug impact via 17-parameter flow cytometry.
The flow cytometry panel used to define hematopoietic subsets was composed of CD34-PECy7, CD90-PECY5, CD38-AF488, CD371-PE, CD45Ra-BV421, CD14-BV605, CD42b-AF647, CD10-PEDazzle594, CD235a-PerCPCy5.5 (BioLegend, California), CD15-BUV395, CD41a-APCH7, CD71-BV786 (BD Biosciences, California), and DAPI for dead cell exclusion (ThermoFisher, California). In short, Day 6 cells were harvested, FcR-blocked (FcR binding inhibitor, ThermoFisher), surface-stained, then analyzed in a buffer containing TruCount Control Beads using a BD LSR Fortessa SORP fitted with a high-throughput sampler (BD Biosciences, California). Data was analyzed in Diva 6.0.2 and exported to CSV where after all cell data was transformed to cell per mL then normalized on a per-donor basis to untreated control wells to determine drug impact.
Donor material was collected and cultured as described above. The number of replicate donor samples per drug ranged from 2–7 and varied per drug (S1 Table). Drug treatment was added at time 0 and cells were maintained in culture for 6 days. Concentrations tested for each drug compound are contained in S1 Table. Concentrations were selected to span a range that is clinically useful. Following treatment, cell populations were measured using flow cytometry. We extracted cell counts from flow cytometry data, normalized to bead counts, and corrected for well volume.
Each well was normalized to the average of six vehicle control wells. For drugs that were tested across multiple runs of the assay, vehicle-normalized donor data were pooled, and we used the average of these pooled data for further modeling. Normalized data used as model inputs are included in S1 Table.
We implemented drug effects using an Emax model for the drug’s effect on each cell type. The 13 maximum effect parameters (EmaxT,C) are unitless and can vary between 0 and 2 and where a subscript, C, represents one of the previously described 13 cell types. We adapted a traditional Emax model using the equations below. We interpreted EmaxT values less than or equal to one as anti-proliferative, and EmaxT values greater than one as indicating a cell-killing mechanism in addition to anti-proliferation. The relationships for these effects are included in the model using the following equations. Eq 2 describes the drug anti-proliferative effect in the net proliferation rate for a given cell type. Eq 3 describes the cell-killing EmaxCK effect.

[8] = Homo sapiens, 144 h, QSP model fit of 6-day MLTA data
[9] = cell-killing component, max(0, EmaxT-1)

## CC(=O)O[C@@]12CO[C@@H]1C[C@H](O)[C@@]1(C)C(=O)[C@H](O)C3=C(C)[C@@H](OC(=O)[C@H](O)[C@@H](NC(=O)OC(C)(C)C)c4ccccc4)C[C@@](O)([C@@H](OC(=O)c4ccccc4)[C@H]21)C3(C)C [docetaxel]
[1]; [8]
  EC50: 4.71 nM
[1]; Homo sapiens, 144 h, dose 0.2 nM, 6 days, normalized to vehicle control, read-out: MPPs normalized cell count
  activity at 0.0002 µM: 91%
[1]; Homo sapiens, 144 h, dose 1 nM, 6 days, normalized to vehicle control, read-out: MPPs normalized cell count
  activity at 0.001 µM: 107%
[1]; Homo sapiens, 144 h, dose 5 nM, 6 days, normalized to vehicle control, read-out: MPPs normalized cell count
  activity at 0.005 µM: 63.9%
[1]; Homo sapiens, 144 h, dose 25 nM, 6 days, normalized to vehicle control, read-out: MPPs normalized cell count
  activity at 0.025 µM: 2.42%
[1]; Homo sapiens, 144 h, dose 100 nM, 6 days, normalized to vehicle control, read-out: MPPs normalized cell count
  activity at 0.1 µM: 0.694%
[1]; Homo sapiens, 144 h, dose 500 nM, 6 days, normalized to vehicle control, read-out: MPPs normalized cell count
  activity at 0.5 µM: 2.03%
[1]; Homo sapiens, 144 h, dose 2500 nM, 6 days, normalized to vehicle control, read-out: MPPs normalized cell count
  activity at 2.5 µM: 0.798%
[1]; Homo sapiens, 144 h, parameter from QSP model fitting, read-out: Emax_drug_MPP
  Emax: 201%
[1]; [9]
  EmaxCK,MPP: 1.014 day⁻¹
[2]; dose 0.2 nM
  activity at 0.0002 µM: 103%
[2]; dose 1 nM
  activity at 0.001 µM: 126%
[2]; dose 5 nM
  activity at 0.005 µM: 15.2%
[2]; dose 25 nM
  activity at 0.025 µM: 0.367%
[2]; dose 100 nM
  activity at 0.1 µM: 0.162%
[2]; dose 500 nM
  activity at 0.5 µM: 0.693%
[2]; dose 2500 nM
  activity at 2.5 µM: 0.207%
Granulocytes (Gran-lin); [8]
  EC50: 7.91 nM
Granulocytes (Gran-lin); Homo sapiens, 144 h, dose 0.2 nM, 6 days, normalized to vehicle control, read-out: Gran normalized cell count
  activity at 0.0002 µM: 99.7%
Granulocytes (Gran-lin); Homo sapiens, 144 h, dose 1 nM, 6 days, normalized to vehicle control, read-out: Gran normalized cell count
  activity at 0.001 µM: 112%
Granulocytes (Gran-lin); Homo sapiens, 144 h, dose 5 nM, 6 days, normalized to vehicle control, read-out: Gran normalized cell count
  activity at 0.005 µM: 2.09%
Granulocytes (Gran-lin); Homo sapiens, 144 h, dose 25 nM, 6 days, normalized to vehicle control, read-out: Gran normalized cell count
  activity at 0.025 µM: 0.0343%
Granulocytes (Gran-lin); Homo sapiens, 144 h, dose 100 nM, 6 days, normalized to vehicle control, read-out: Gran normalized cell count
  activity at 0.1 µM: 0.0437%
Granulocytes (Gran-lin); Homo sapiens, 144 h, dose 500 nM, 6 days, normalized to vehicle control, read-out: Gran normalized cell count
  activity at 0.5 µM: 0.0563%
Granulocytes (Gran-lin); Homo sapiens, 144 h, dose 2500 nM, 6 days, normalized to vehicle control, read-out: Gran normalized cell count
  activity at 2.5 µM: 0.0425%
Granulocytes (Gran-lin); Homo sapiens, 144 h, parameter from QSP model fitting, read-out: Emax_drug_Gran
  Emax: 276%
Granulocytes (Gran-lin); [9]
  EmaxCK,Gran: 1.762 day⁻¹
[3]; QSP model fit of 6-day MLTA data, read-out: EC50ErythII
  EC50: 6.3 nM
[3]; dose 0.2 nM, 6 days, normalized to vehicle control, read-out: ErythII normalized cell count
  activity at 0.0002 µM: 91.6%
[3]; dose 1 nM, 6 days, normalized to vehicle control, read-out: ErythII normalized cell count
  activity at 0.001 µM: 105%
[3]; dose 5 nM, 6 days, normalized to vehicle control, read-out: ErythII normalized cell count
  activity at 0.005 µM: 0.449%
[3]; dose 25 nM, 6 days, normalized to vehicle control, read-out: ErythII normalized cell count
  activity at 0.025 µM: 0.0341%
[3]; dose 100 nM, 6 days, normalized to vehicle control, read-out: ErythII normalized cell count
  activity at 0.1 µM: 0.0344%
[3]; dose 500 nM, 6 days, normalized to vehicle control, read-out: ErythII normalized cell count
  activity at 0.5 µM: 0.0336%
[3]; dose 2500 nM, 6 days, normalized to vehicle control, read-out: ErythII normalized cell count
  activity at 2.5 µM: 0.0256%
[3]; parameter from QSP model fitting, read-out: Emax_drug_ErythroidII
  Emax: 1.59%
MK cells (MK-lin); QSP model fit of 6-day MLTA data
  EC50: 7.79 nM
MK cells (MK-lin); dose 0.2 nM, 6 days, normalized to vehicle control, read-out: MK normalized cell count
  activity at 0.0002 µM: 94.7%
MK cells (MK-lin); dose 1 nM, 6 days, normalized to vehicle control, read-out: MK normalized cell count
  activity at 0.001 µM: 109%
MK cells (MK-lin); dose 5 nM, 6 days, normalized to vehicle control, read-out: MK normalized cell count
  activity at 0.005 µM: 14.4%
MK cells (MK-lin); dose 25 nM, 6 days, normalized to vehicle control, read-out: MK normalized cell count
  activity at 0.025 µM: 1.1%
MK cells (MK-lin); dose 100 nM, 6 days, normalized to vehicle control, read-out: MK normalized cell count
  activity at 0.1 µM: 0.719%
MK cells (MK-lin); dose 500 nM, 6 days, normalized to vehicle control, read-out: MK normalized cell count
  activity at 0.5 µM: 0.951%
MK cells (MK-lin); dose 2500 nM, 6 days, normalized to vehicle control, read-out: MK normalized cell count
  activity at 2.5 µM: 1.05%
MK cells (MK-lin); parameter from QSP model fitting, read-out: Emax_drug_MK
  Emax: 12.6%
[4]; dose 0.2 nM, 6 days, normalized to vehicle control, read-out: LymP normalized cell count
  activity at 0.0002 µM: 96.4%
[4]; dose 1 nM, 6 days, normalized to vehicle control, read-out: LymP normalized cell count
  activity at 0.001 µM: 131%
[4]; dose 5 nM, 6 days, normalized to vehicle control, read-out: LymP normalized cell count
  activity at 0.005 µM: 24.3%
[4]; dose 25 nM, 6 days, normalized to vehicle control, read-out: LymP normalized cell count
  activity at 0.025 µM: 6.02%
[4]; dose 100 nM, 6 days, normalized to vehicle control, read-out: LymP normalized cell count
  activity at 0.1 µM: 2.7%
[4]; dose 500 nM, 6 days, normalized to vehicle control, read-out: LymP normalized cell count
  activity at 0.5 µM: 7.71%
[4]; dose 2500 nM, 6 days, normalized to vehicle control, read-out: LymP normalized cell count
  activity at 2.5 µM: 6.19%
[4]; parameter from QSP model fitting, read-out: Emax_drug_LymP
  Emax: 0.16%
[5]; dose 0.2 nM
  viability at 0.0002 µM: 100%
[5]; dose 1 nM
  viability at 0.001 µM: 108%
[5]; dose 5 nM
  viability at 0.005 µM: 4.66%
[5]; dose 25 nM
  viability at 0.025 µM: 0.311%
[5]; dose 100 nM
  viability at 0.1 µM: 0.197%
[5]; dose 500 nM
  viability at 0.5 µM: 0.378%
[5]; dose 2500 nM
  viability at 2.5 µM: 0.283%
[6]; dose 0.2 nM
  activity at 0.0002 µM: 104%
[6]; dose 1 nM
  activity at 0.001 µM: 107%
[6]; dose 5 nM
  activity at 0.005 µM: 113%
[6]; dose 25 nM
  activity at 0.025 µM: 45.7%
[6]; dose 100 nM
  activity at 0.1 µM: 46.1%
[6]; dose 500 nM
  activity at 0.5 µM: 41.6%
[6]; dose 2500 nM
  activity at 2.5 µM: 48.4%
[7]
  EmaxT effects across cell types (overall statement): > 1.0
